The numbers were not newly measured in US20140348873A1, “Urea-Silicone Gel for Hyperkeratosis Treatment” (PROFESSIONAL COMPOUNDING CENTERS OF AMERICA, priority 2013, published 2014), which cites them from elsewhere.

Each structure is given as a SMILES string.

The conditions of this data set: general background statement; no experiment described.

With `NC(N)=O` [Urea], the “water content of the skin, level reached with urea” value is on record as 97.8%.
